Laboratory results published in patent US20020049157A1, “Use of proteasome inhibitors for treating cancer, inflammation, autoimmune disease, graft rejection and septic shock” (priority 1998, published 2002).
pIC50: −log10 of the molar value. Read-outs that look alike come from different tables or passages of the source. Peptide text beside a SMILES is read from it. * marks the point of attachment. Cbz = O=C(OCc1ccccc1)*; CH2F = FC*

Assays:
Jurkat cells [1] = assay: DNA fragmentation (DNA laddering) in Jurkat cells; type: cell-based; conditions: LAC 6 μM; caspase inhibitor 0.4 μM to 33.3 μM; 6 h
Protocol: Tonsillar T cells (A, B, and D) and Jurkat cells (C and E) were treated with LAC (10 μM for T cells and 6 μM for Jurkat cells). LAC was added at the beginning of the culture or 40 h after T cell activation as indicated. The cells were harvested at the time points as shown. They were evaluated for their viability with trypan blue exclusion (A, B, and C), and for their mode of cell death according to DNA fragmentation (D and E).
Jurkat cells were treated with LAC (6 μM) in the absence or presence of different concentrations of zVAD.fms (0.4 μM to 33.3 μM) for 6 h. The cells were harvested and their DNA was analyzed by a DNA fragmentation assay according to DNA laddering.
We next employed DNA laddering to study the mode of cell death caused by LAC, and the result of this experiment also reflected the degree of cell death after different treatments. […] After 24 h of LAC treatment, the ladders became less discrete, and this probably reflected further DNA breakdown.
The assay was performed according to a protocol described by Liu et al (Liu et al., 1997, Cell. 89:175) with some modifications. Briefly, 2-6 million cells were re-suspended in 50 μl PBS followed by 300 μl lysis buffer (100 mM Tris-HCl, pH 8.0, 5 mM EDTA, 0.2 M NaCl. 0.2% w/v SDS, and 0.2 mg/ml proteinase K). After overnight incubation at 37° C., 350 μl of 3M NaCl was added to the mixture and cell debris was removed by centrifugation at 13000 g for 20 min at room temperature. DNA in the supernatant was precipitated with an equal volume of 100% ethanol. The pellet was washed with cold 70% ethanol and then dissolved in 20 μl of TE containing 0.2 mg/ml RNase A. After incubation at 37° C. for 2 h, the DNA was resolved on 2% agarose gel and visualized with ethidium bromide staining.

proteasome = conditions: for repression of chymotrypsin-like activity in the PBMC: RAPA at 10 nM
Protocol: Human PBMC were cultured in the absence or presence of 2 μg/ml PHA or 10 nM RAPA for 16 h-70 h as indicated. The cells were then harvested, and the chymotrypsin-like activity of whole cells lysates was assayed in the absence or presence of 20 μM proteasome inhibitor LAC. The data are presented as arbitrary units of fluorescence intensity per 20 μg lysate protein. The experiments were repeated three times and a representative one is shown. Samples are in duplicate and the mean±SD is shown. (A) Total chymotrypsin-like activity in the lysate of PBMC. (B) Lactacystin-inhibitable chymotrypsin-like activity in the lysate of 70 h PBMC. Nine micrograms of 20S proteasome were used as positive controls for the inhibitory effect of LAC at 10 μM and 20 μM. LAC was always added to the lysates during the proteinase assay 15 min before the addition of the substrate. The solid bars represent the activity in the presence of LAC. The net proteasome activities are calculated as the total activity minus the remaining activity after the LAC addition.
PBMC lysates were assayed for their proteinase activity at pH 8.2 which favors the proteasome activity, using a chymotrypsin substrate as a representative parameter.
PBMC were cultured with or without PHA (2 μg/ml) and RAPA (10 nM). After 16 h-70 h, the cells were harvested and sonicated in 300 μl PBS on ice for 40 sec. Twenty micrograms of protein per sample from the cleared lysates were supplemented to 100 μl with 0.1 M Tris buffer (pH 8.2). A proteasome-specific inhibitor lactacystin (Omura et al., 1991, supra; Fentenay et al., 1995, supra) was added at a final concentration of 10 nM in some samples as indicated. The samples were incubated on ice for 15 min, and fluorogenic chymotrypsin substrate sLLVY-MCA was then added at a final concentration of 10 nM. The 20S proteasome, which was prepared as previously described (Friguet et al, 1994, J. Biol. Chem. 269:21639), was used as a positive control in place of cell lysates. The samples were incubated at 37° C. for 15 min and the reaction was terminated by adding 4 μl 2.5 M HCl. The samples were then diluted to 2 ml with 0.1 M Tris pH8.2, and measured for their fluorescent intensity by a PTI fluorometer (Photo Technology International, South Brunswick, N.J.). The excitation wavelength was 380 nm, and the emission wavelength 440 mn.

Jurkat and Namalwa cells = assay: Apoptosis induction in Jurkat and Namalwa cells; type: cell-based
Jurkat cells [2] = assay: Respiration (O2 consumption) of Jurkat cells, oxygen electrode; type: cell-based; conditions: LAC for 4 h; 100 μM Cytochrome C
From the text: The function of Complex I of digitonin (Dig)-permeated Jurkat cells was blocked by rotenone (Rot), and the respiration was resumed by adding succinate (Suc), which provides electrons to Complex II directly and thus bypasses Complex I. The maximal respiration was achieved by adding CCCP (carbonyl cyanide m-chlorophenylhydrazone), which uncouples the oxidation and phosphorylation. The respiration could be blocked by antimycin A (Ant), which inhibits […]. Curves 1 and 6 represent positive controls of rat kidney mitochondria. Curves 2 and 5 represent normals untreated Jurkat cells. Curves 3 and 4 represent Jurkat cells treated with lactacystin (6 μM) for 2 h and 4 h, respectively.
Complex III in the respiration chain was blocked at Complex III antimycin (Ant), and the electron flow was resumed by addiind ascorbate (Asc) and TMPD (tetramethyl-p-phenyl-enediamine).
The assay system is identical to that described in FIG. 16. Jurkat cells were treated with LAC for 4 h (curve 3). The decoupling reagent used in this experiment to achieve maximal respiration is FCCP (carbonylcyanide-p-trifluoromethoxyphenylhydrazone).
The Jurkat Cells (JC) (30×10^6/ml) or rat kidney proximal tubules mitochondria (RKM) (0.5 mg of protein/ml) were incubated in 1 ml measuring chamber at 37° C. in a respiration buffer containing 200 mM sucrose, 5 mM MgCl2, 5 mM KH2PO4, and 30 mM HEPES-Tris (pH 7.5). During respiration experiments following substrates and inhibitors were used: 0.005% Digitonine (Dig); 10 mM Succinate (Suc); 1 mM Ascorbate (Asc); 0.4 mM tetramethyl-p- phenylenediamine (TMPD); 1 μM CCCP, 1 μM FCCP; 0.1 μM Rotenone (Rot); 50 nM Antimycin A (Anti); 1 mM KCN; 100 μM Cytochrome C (Cyt C). The respiration rate of the Jurkat Cells and mitochondria was measured polarographically with a Clarke oxygen electrode (Yellow Springs Instruments, Yellow Springs, Ohio, U.S.A.) using 1 ml thermojacketed chamber. Oxygen concentration was calibrated with air-saturated buffer using Hypoxanthine—Xanthine Oxidase—Catalase system (“chemical zero”). Oxygen consumption was continuously recorded using a “MacLab/8” (Analog Digital Instruments, U.S.A.) connected to a Macintosh SE computer and the MacLab Chart v.3.3.4 software. Rates of oxygen consumption are expressed as ng-atoms of oxygen/min.

islet allograft = assay: Mouse islet allograft in streptozocin-induced diabetes; type: in vivo; conditions: 1 mg/kg/day i.p. for 16 days, then 0.5 mg/kg twice a week until day 60
Protocol: C57BL/6 mice were treated with 250 mg/kg streptozocin and used as islet graft recipients when their blood glucose reached […] from BALB/c mice were isolated after collagenase digestion followed by Ficoll gradient separation. The islets were cultured overnight, and transplanted into the peritoneal cavity of the diabetic C57BL/6 recipients (500-600 islets/recipient). […] The blood glucose of the mice was measured daily and the means+SDs are shown. […] The mice were sacrificed on day 60, or when their blood glucose reached […].

[3] = test system: Streptococcus cell wall-induced polyarthritis; conditions: in vivo, cited from earlier work
[4] = test system: BALB/c mouse spleen cells; assay: Anti-CD3-stimulated T cell proliferation (3H-thymidine); type: cell-based; conditions: anti-CD3 50 ng/ml; pulsed 48 h, harvested 64 h
Protocol: The cells were pulsed with ^3H-thymidine at 48 h and harvested at 64 h after the culture.

heart allograft = type: in vivo, mouse
Protocol: BALB/c mice (H-2^d) were used as heart donors and C57BL/6 mice (H-2^b) as recipients. […] Group 2 was given 0.65 mg/kg/day; group 3 was given 1.0 mg/kg/day for 4 days, and the dose was then reduced to 0.5 mg/kg/day for 12 days. The graft survival days, mean survival time (MST) and the p value (unpaired Student's test) compared with the control group was presented.
The applicant then used DPBA in treating allograft rejection in a mouse model. BALB/c (H-2^d) mice were used as donors and C57BL/6 (H-2^b) was used as recipients. Heterotropic heart transplantation was performed as described in our previous publication (Chen et al., 1996, supra). […] With this regimen, the MST is more than 22.8+9.8 days and has a tendency of being better than the first group.
Proteasome inhibitors when added at the late G1 phase can suppress proliferation and even induce apoptosis of the activated T cells. […] This possibility was tested in mouse heart transplantation model. The recipients were given no immunosuppressants for 72 h after the transplantation to allow the rejection response to proceed. […] This new drug will be especially useful in patients who are resistant to commonly used immunosuppressants such as CyA, azathioprine, and glucocorticoids.

For `COC(=O)C[C@H](NC(=O)[C@H](C)NC(=O)[C@@H](NC(=O)OCc1ccccc1)C(C)C)C(=O)CF` [zVAD.fms, zVAD.fmk] (Cbz-Val-Ala-Asp(OMe)-CH2F), the “effect on LAC-induced DNA fragmentation” value (Jurkat cells [1]) was “inhibitory effect on DNA fragmentation that is concentration responsive”.

With `CO[C@H]1C[C@@H]2CC[C@@H](C)[C@@](O)(O2)C(=O)C(=O)N2CCCC[C@H]2C(=O)O[C@H]([C@H](C)C[C@@H]2CC[C@@H](O)[C@H](OC)C2)CC(=O)[C@H](C)/C=C(\C)[C@@H](O)[C@@H](OC)C(=O)[C@H](C)C[C@H](C)/C=C/C=C/C=C/1C` [RAPA, Rapamycin] the net proteasome activity (proteasome; PHA plus RAPA-treated cells, 70 h, total minus activity remaining after LAC) was 113.2×10^3 units/20 μg protein, the “inhibition of the augmented proteasome activity in the PHA-treated PBMC” value (proteasome; RAPA 10 nM, 70 h) was 44.7% and the “inhibition of the total proteasome activity in the PHA-treated PBMC” value (proteasome; RAPA 10 nM, 70 h) was 33.6%. For the same molecule, the “repression of chymotrypsin-like activity in the PBMC” value (proteasome; 40 h after PHA stimulation) was 23.1% and the “repression of chymotrypsin-like activity in the PBMC” value (proteasome; 70 h after PHA stimulation) was 41.1%.

With `CN[C@@H]1C[C@H]2O[C@@](C)([C@@H]1OC)n1c3ccccc3c3c4c(c5c6ccccc6n2c5c31)C(=O)NC4` [staurosporine] the induction of apoptosis (Jurkat and Namalwa cells) was “could equally induce apoptosis”.

In the case of cytochrome c, the “respiration of LAC-treated cells after adding exogenous cytochrome c” value (Jurkat cells [2]) was “the respiration resumed to a rate similar to that of untreated Jurkat cells and mitochondria”.

In the case of `CC(C)C[C@H](NC(=O)[C@H](Cc1ccccc1)NC(=O)c1cnccn1)B(O)O` [DPBA, Pyz-Phe-boroLeu], the “duration of normal function of allogeneic islet graft” value (islet allograft) is listed as “more than 60 days”, the “glucose elevation consequent to islet rejection” value (islet allograft) is listed as “inhibits the glucose elevation consequent to islet rejection” and the toxicity ([3]; rat) is listed as “without apparent toxicity”. For the same molecule, the “inhibition of Streptococcus cell wall-induced polyarthritis” value ([3]; rats) was “effectively inhibit”, the pIC50 [4] was roughly 7.74 and the “MST (mean survival time of heart allograft)” value (heart allograft; 0.65 mg/kg/day i.p. for 16 days) was “more than 26.2+13 days”. For the same molecule, the “MST (mean survival time of heart allograft)” value (heart allograft; 1 mg/kg/day i.p. day 1-4, then 0.5 mg/kg/day i.p. day 5-16) was “more than 22.8+9.8 days”, the “MST (ongoing rejection)” value (heart allograft; 1 mg/kg/day i.p. for 4 days starting on day 3) was “more than 13.2+1.78 days” and the “appearance of the mice during or after the drug administration” value (heart allograft; mouse, in vivo, ip) was “appear healthy”. For the same molecule, the “graft survival (ongoing rejection)” value (heart allograft; short-term treatment between day 3 and 6) was “more than 13 days”.
